The results in this text go back to paper PMC4832822, “Investigating the Influence of (Deoxy)fluorination on the Lipophilicity of Non‐UV‐Active Fluorinated Alkanols and Carbohydrates by a New log P Determination Method” (Angewandte Chemie (International Ed. in English), 2015).

Data set [1] is described as follows: log P determination by 19F NMR shake-flask method with internal fluorinated reference (octanol/water).
A short description of data set [2]: physchem.
[3] abbreviates: octanol/water, logP, 19F NMR, 25 °C, average value.
The mark [4] stands for this setting: error (mean logP to three decimals).
The mark [5] stands for this setting: octanol/water, Average logP, 25 °C, reference TFE (+0.36).
Where [6] appears, read: octanol/water, error (mean logP to three decimals), reference TFE (+0.36).
Where [7] appears, read: octanol/water, logP, single experiment, reference TFE (+0.36).

“And” between values parts separate entries of the source, which are not always exact repeats. Identical values can stand only once.

On to `CC(C)(C)[C@H]1CC[C@H](O)[C@@H](F)C1` (relative stereo) [compound 43], for which the lipophilicity (logP) (in general, a log measure of how a compound divides between an organic and an aqueous phase) in data set [1] (setting [3]) worked out at 2.61.
Take `CC(O)(C(F)(F)F)C(F)(F)F` [compound 15]: the lipophilicity (logP) in data set [2] (setting [4]) and in data set [2] (logP) was 2.08 throughout.
`CC(O)CCF` (stereo not shown) [compound 16]: the values for the logP in data set [2] (Average logP), in data set [2] (setting [4]) and in data set [2] (logP) were 0.08, 0.084 and 0.077, respectively.
Turning to `CC(O)C(F)(F)C(F)F` (stereo not shown) [compound 19], the logP in data set [2] (Average logP), in data set [2] (setting [4]) and in data set [2] (logP) was 1.05 each time.
As to `CC(O)C(F)(F)C(F)(F)F` (stereo not shown) [compound 20], the lipophilicity (logP) in data set [2] (Average logP), in data set [2] (setting [4]) and in data set [2] (logP) was 1.53 throughout.
Regarding `OCCCCF` [compound 21], the logP in data set [2] (Average logP, 25 °C, reference TFE (+0.36)) came to 0.09; in data set [2] (error (mean logP to three decimals), reference TFE (+0.36)), 0.09; in data set [2] (logP), 0.092; in data set [2] (logP, octanol/water, 19F NMR, 25 °C, average value), 0.09; in data set [2] (logP, single experiment, reference TFE (+0.36)), 0.09.
On to `CC(F)CCO` (stereo not shown) [compound 22, 3-fluorobutan-1-ol], for which the figures for the lipophilicity (logP) in data set [1] (setting [5]), in data set [1] (setting [6]) and in data set [1] (setting [7]) were 0.17, 0.173 and 0.166, respectively.
Turning to `OCCC(F)(F)C(F)(F)F` [compound 24], the results for the logP in data set [2] (Average logP), in data set [2] (setting [4]) and in data set [2] (logP) were 1.3, 1.3 and 1.29, respectively.
With `CCCC(O)C(F)(F)F` (stereo not shown) [compound 29, 1,1,1-trifluoropentan-2-ol], the lipophilicity (logP) in data set [1] (setting [5]) was 1.82; in data set [1] (setting [6]), 1.82; in data set [1] (setting [7]) it was 1.83.
Regarding `OCCCCCF` [compound 30, 5-fluoro-1-pentanol], the lipophilicity (logP) stood at 0.52 in data set [2] (Average logP), 0.524 in data set [2] (setting [4]) and 0.524 in data set [2] (logP).
On to `CC(F)CCCO` (stereo not shown) [compound 31, 4-fluoropentan-1-ol], for which the logP in data set [1] (setting [5]) was determined as 0.52; in data set [1] (setting [6]), 0.522; in data set [1] (setting [7]), 0.517.
Turning to `CC(F)(F)CCCO` [compound 32, 4,4-difluoropentan-1-ol], the logP is 0.71 in data set [1] (setting [5]); 0.708 in data set [1] (setting [6]); 0.712 in data set [1] (setting [7]); “+0.712” in data set [1] (single experiment, reference TFE (+0.36)).
On to `CCCC(F)CO` (stereo not shown) [compound 33, 2-fluoropentan-1-ol], for which the logP in data set [1] (multiple acquisitions of one sample (Table SI7), single acquisition, reference 2,2,2-trifluoroethanol) was 0.5206 and 0.5160 and 0.5224 and 0.5294 and 0.5210 and 0.5213; in data set [1] (multiple reprocessing of one FID (Table SI8), single reprocessing) it was 0.5205 and 0.5167 and 0.5166 and 0.5215 and 0.5186; in data set [1] (setting [5]) it was 0.87; in data set [1] (setting [6]), 0.868; in data set [1] (octanol/water, logP Average, seven acquisitions (Table SI7)), 0.521; in data set [1] (octanol/water, logP Average, seven reprocessings (Table SI8)) it was 0.518. In addition, the logP in data set [1] (octanol/water, logP, multiple acquisitions of one sample (Table SI7), single acquisition, reference 2,2,2-trifluoroethanol) amounted to 0.517; in data set [1] (octanol/water, logP, multiple reprocessing of one FID (Table SI8), single reprocessing), 0.513; in data set [1] (setting [7]), 0.872.
Consider `OCCCC(F)(F)C(F)F` [compound 34, 4,4,5,5-tetrafluoropentan-1-ol], for which the logP in data set [2] (Average logP) amounted to 0.97; in data set [2] (setting [4]), 0.974; in data set [2] (logP), 0.971.
With `OCCCC(F)(F)C(F)(F)F` [compound 36], the logP in data set [2] (Average logP) is 1.72; in data set [2] (setting [4]) it was 1.72; in data set [2] (logP) it was 1.73.
In the case of `OCC(F)(F)C(F)(F)CO` [compound 41], the logP in data set [2] (Average logP) was -0.11; in data set [2] (setting [4]) it was -0.109.
For the compound `CC(C)(C)C1CCC(O)CC1F` (stereo not shown) [compound 45], the logP in data set [1] (setting [3]) turned out to be 2.23.
The same measure, in the same setting: in the case of `O=C[C@@H](F)[C@@H](O)[C@H](O)[C@H](O)CO` [compound 50, 2-Fluoro-2-deoxy-D-mannose] it was -2.11; in that of `OC[C@H]1OC(O)C[C@@H](F)[C@@H]1O` (stereo partly drawn) [compound 51, 2,3-Dideoxy-3-fluoro-D-glucopyranose], -1.45.
Consider `OC[C@H]1OC(O)[C@H](F)[C@@H](F)[C@@H]1O` (stereo partly drawn) [compound 52, 2,3-Dideoxy-2,3-difluoro-D-glucopyranose], for which the logP in data set [1] (octanol/water, log P units more lipophilic than Glc, relative to glucose) is about 2.1; in data set [1] (setting [3]), -1.11; in data set [1] (octanol/water, logP, single experiment, reference FE (-0.75)), -1.11.
`OC[C@H]1OC(O)C(F)(F)C(F)(F)[C@@H]1O` (stereo partly drawn) [compound 54, 2,3-Dideoxy-2,2,3,3-tetrafluoro-D-erythro-hexopyranose]: the logP in data set [1] (setting [5]) was -0.32; in data set [1] (setting [7]), -0.316.
